Where “and” joins values, the source holds several entries; their conditions need not be identical. Equal entries are not always repeated. Entries after “also recorded” stand apart in the source; their conditions may differ.
Columns and labels:
[1] = tested on: serotonine transporters; experiment: Uptake of serotonine in a synaptosomal preparation; type: biochemical
[2] = tested on: extracellular serotonin in the striatum of rats; experiment: Microdialysis in the striatum of rats, reversal by flumazenil (Example 6); type: in vivo, rat
Experimental: (§1) The day before the experiment, male rats were anaesthetised with chloral hydrate (3.6%, 1 ml/100 g i.p.) and placed in a stereotaxic frame to implant a microdialysis guide cannula (CMA/12, Carnegie Medicine, Sweden). Scalp was incised in the median anterior-posterior direction between lambda and bregma and a small hole was drilled into the skull. The stereotaxic coordinates were AP=+1.0 mm, L=−3.0 mm from bregma and 1.5 mm from the skull surface for the striatum according to the atlas of Paxinos and Watson, (1986) (1). Dental cement (Sinfony(2)) was used to fix the guide cannula and anchor screws to the cranium. During the surgery rectal temperature was maintained at 37° C. using a heating blanket.
The day before the experiment the microdialysis probe (CMA/12, membrane length 4 mm, Carnegie Medicin, Sweden) was inserted into the striatum through the guide cannula. […] Microvials were stored in a fraction collector (CMA/170) at a temperature of 8° C. until analysed. […]
Dialysates were directly analysed by reverse-phase high-performance liquid chromatography with electrochemical detection (HPLC-EC). […]
(§2) Therefore data of each animal were expressed as percentages. Data from dialysates before administering the substances were averaged, and the mean set as 100%; all individual values were calculated accordingly.

[3] = molecular target: T1, recombinant rat α4β2γ2 GABAA receptors (Rattus norvegicus, UniProt P28471); experiment: Whole-cell patch-clamp, modulation of GABA (EC20)-induced currents in transfected HEK 293 cells, α4β2γ2; type: cell-based
T1 construct: expressed in transfected cells; host or cells: HEK 293
Experimental: (§3) For electrophysiological recording HEK-293 cells were passaged and replated on 12-mm glass coverslips located in 9.6-cm plastic dishes filled with 10 ml of Minimum Essential Medium (MEM, Gibco) supplemented with 158 mg/l sodium bicarbonate, 2 mM glutamine (Gibco), 100 U/ml penicillin-streptomycin (Gibco), and 10% foetal calf serum (Gibco). Cultures were maintained at 37° C. in a humidified […]/5% CO2 atmosphere for 2-3 days.
(§4) Transfection with recombinant rat GABAA receptors was carried out as described in detail (Korpi and Lüddens, 1993, Lüddens and Korpi, 1995b). Briefly, HEK 293 cells were transfected in triple combinations using the phosphate precipitation method with rat GABAA receptor cDNAs in eukaryotic expression vectors (Pritchett, 1990) for the α, β and γ subunits. For optimal receptor expression, final concentrations (μg vector DNA per 9.6 cm tissue culture plate) were: α1, 2; α2 4.8; α3, 1.2; α4, 10; α5, 0.8; β2, 0.4; and γ2S, 0.3. The γ2S variant is abbreviated γ2 in the remainder of the text. To identify transfected cells all subunit combinations were co-transfected with 1 μg per plate of pNI-EGFP.
Two days after transfection single coverslips containing HEK 293 cells were placed in a recording chamber mounted on the movable stage of a fluorescence microscope (Olympus IX70) and perfused with a defined saline solution containing (in mM): 130 NaCl, 5.4 KCl, 2 CaCl2, 2 MgSO4, 10 glucose, 5 sucrose, and 10 HEPES (free acid), pH adjusted to 7.35 with about 35 mM NaOH. Transfected cells were identified by their green fluorescence due to the expression of the pNI-EGFP vector and ligand-mediated membrane currents of these cells were studied in the whole-cell configuration of the patch-clamp technique (Hamil et al., 1981). […]
Seal resistances >1 GΩ were routinely obtained by applying gentle suction to the pipettes. Membrane rupture was monitored electrically as an increase in capacity. […]
In all cells recorded the presence of the γ2 subunit in the heteropentamere was monitored by the application of 1 μM zolpidem plus the EC20 of GABA before testing the experimental drugs. […]

[4] = tested on: extracellular 5-HT, HIAA and dopamine in the striatum of rats; experiment: Microdialysis in the striatum of rats (Example 3); type: in vivo, rat; details: 30 mg/kg i.p.
Experimental: as §1
The day before the experiment the microdialysis probe (CMA/12, membrane length 4 mm, Carnegie Medicin, Sweden) was inserted into the striatum through the guide cannula. On the day of experiment the probe was perfused with Ringer solution (148 mM NaCl, 4 mM KCl, 2,4 mM CaCl2, pH=6,0). The flow rate (1 μl/min) allowed to collect 20 μl samples every 20 minutes into microvials. Microvials were stored in a fraction collector (CMA/170) at a temperature of 8° C. until analysed. Using a swivel joint the perfusion arrangement allowed the animal to move freely within a hemispherical bowl. After an adjusting time of one hour 3 consecutive 20-min-fractions were collected to establish a stable basal level of neurotransmitter release.
Thereafter 30 mg/kg E131-00139 or an equivalent volume of 0.5% tylose/PEG300 9:1, respectively, was administered. Then collecting samples was continued for at least 220 minutes.
Dialysates were directly analysed by reverse-phase high-performance liquid chromatography with electrochemical detection (HPLC-EC). The samples were separated by a ZORBAX SB-Aq 2.1 mm ID×100 mm column (Agilent Technologies). […]
as §2

[5] = molecular target: T2, recombinant rat α1β2γ2 GABAA receptors (Rattus norvegicus, UniProt P62813); experiment: Whole-cell patch-clamp, modulation of GABA (EC20)-induced currents in transfected HEK 293 cells, α1β2γ2; type: cell-based
T2 construct: expressed in transfected cells; host or cells: HEK 293
Experimental: as §3, §4
Two days after transfection single coverslips containing HEK 293 cells were placed in a recording chamber mounted on the movable stage of a fluorescence microscope (Olympus IX70) and perfused with a defined saline solution containing (in mM): 130 NaCl, 5.4 KCl, 2 CaCl2, 2 MgSO4, 10 glucose, 5 sucrose, and 10 HEPES (free acid), pH adjusted to 7.35 with about 35 mM NaOH. Transfected cells were identified by their green fluorescence due to the expression of the pNI-EGFP vector and ligand-mediated membrane currents of these cells were studied in the whole-cell configuration of the patch-clamp technique (Hamil et al., 1981). Patch-clamp pipettes were pulled from hard borosilicate capillary glass (0.5 mm ID, 1.5 mm OD, Vitrex, Science Products GmbH, Hofheim, Germany) using a horizontal puller (Sutter Instruments, CA, Model P-97) in a multi-stage process.
Seal resistances >1 GΩ were routinely obtained by applying gentle suction to the pipettes. Membrane rupture was monitored electrically as an increase in capacity. Pipette capacitance, membrane capacitance, and series resistance were electronically compensated to achieve minimal capacitative transients. A series resistance compensation of >60% was regularly used.
In all cells recorded the presence of the γ2 subunit in the heteropentamere was monitored by the application of 1 μM zolpidem plus the EC20 of GABA before testing the experimental drugs.
Responses of the cells were recorded by a patch-clamp amplifier (EPC-8, HEKA-Electronic, Lambrecht, Germany) in conjunction with a standard personal computer and the pClamp 8.1 software package (Axon Instruments, Foster City, Calif.). The standard holding-potential for the cells was −40 mV. Whole cell currents were low-pass filtered by an eight-pole Bessel filter at 5 or 3 kHz before being digitised by a Digidata 1322A interface (Axon Instruments, Foster City, Calif.) and recorded by the computer at a sampling rate of at least […].
Efficacy, potency, and GABAA receptor a subunit specificity of the new compound ELB139 was tested with the whole cell configuration of the patch-clamp technique by applying increasing drug concentration together with GABA of the approximate EC20 on green fluorescing cells. BZ binding site specificity of the new compound was tested on the same cells in an identical experimental setting with additionally applying 10 μM Ro15-1788.

T2 sequence (P62813 28-455): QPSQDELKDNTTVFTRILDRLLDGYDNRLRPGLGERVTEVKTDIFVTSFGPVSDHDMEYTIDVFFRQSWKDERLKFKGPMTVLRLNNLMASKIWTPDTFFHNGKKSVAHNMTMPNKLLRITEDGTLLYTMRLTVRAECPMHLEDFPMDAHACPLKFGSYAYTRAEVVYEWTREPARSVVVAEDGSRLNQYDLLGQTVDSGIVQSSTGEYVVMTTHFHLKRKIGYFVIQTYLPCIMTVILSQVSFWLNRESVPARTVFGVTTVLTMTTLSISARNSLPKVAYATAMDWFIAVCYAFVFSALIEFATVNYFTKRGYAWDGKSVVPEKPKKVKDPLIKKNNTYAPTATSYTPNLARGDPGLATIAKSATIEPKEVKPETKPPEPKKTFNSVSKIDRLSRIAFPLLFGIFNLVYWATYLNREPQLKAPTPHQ
T1 sequence (P28471 36-552): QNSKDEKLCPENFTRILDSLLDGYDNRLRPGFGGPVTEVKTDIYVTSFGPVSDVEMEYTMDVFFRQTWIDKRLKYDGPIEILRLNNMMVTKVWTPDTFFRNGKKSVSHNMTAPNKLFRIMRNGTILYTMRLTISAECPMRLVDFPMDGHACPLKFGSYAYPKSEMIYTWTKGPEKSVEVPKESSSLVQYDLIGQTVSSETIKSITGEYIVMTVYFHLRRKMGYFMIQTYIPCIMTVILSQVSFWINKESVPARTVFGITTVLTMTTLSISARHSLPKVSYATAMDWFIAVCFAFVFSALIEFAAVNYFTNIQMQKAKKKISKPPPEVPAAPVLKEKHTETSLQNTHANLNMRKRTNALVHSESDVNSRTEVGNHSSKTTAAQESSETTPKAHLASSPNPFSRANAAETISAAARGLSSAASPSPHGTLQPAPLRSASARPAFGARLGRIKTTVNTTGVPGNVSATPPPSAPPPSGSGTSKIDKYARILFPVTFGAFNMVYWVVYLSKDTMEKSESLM

O=C1N=C(N2CCCCC2)CN1c1ccc(Cl)cc1 [ELB139, 1-(4-chlorophenyl)-4-piperidinoimidazolin-2-one]
uptake of serotonine [1]: no effect | extracellular serotonin in the striatum compared to mean basal level ([2]; 30 mg/kg i.p.): marked increase | increase of extracellular serotonin after flumazenil ([2]; ELB139 30 mg/kg i.p., flumazenil 10 mg/kg i.p. 40 minutes later): not only reversed but serotonin level even decreases below the mean basal level | modulation of GABA-induced currents (in words) ([3]; α4-containing receptors, diazepam up to 1 μM, ELB139 at all concentrations tested): unaffected; also recorded: not active | EC50 ([3]; α4β2γ2, applied with approximate GABA EC20, read-out: EC50 (ELB139)): > 30 µM | HIAA concentration in the striatum [4]: without influencing | dopamine concentration in the striatum [4]: did also not influence | 5-HT concentration in the striatum ([4]; vs tylose vehicle): significantly and unexpectedly increased | concentration at which positive current modulation was observable ([5]; α1-containing receptors): 0.3 µM | maximal positive modulation of GABA-induced current ([5]; α1-containing receptors, maximum at 30 μM (ELB139), at 1 μM (diazepam)): 1.6±0.08 fold and 1.6 fold | concentration at which significant agonistic effects were noticeable ([5]; α1β2γ2): about 1 μM | EC50 ([5]; α1β2γ2, applied with approximate GABA EC20, read-out: EC50 (ELB139)): 3.8 µM | effect of 10 μM Ro15-1788 on the current enhancement by the compound ([5]; α1β2γ2, co-applied 10 μM Ro15-1788 (flumazenil)): completely abolished | Potentiation* (ELB139) ([5]; α1β2γ2, with GABA EC20, graphically determined): 1.6 ± 0.08

Reference: patent publication US20050032863A1, “Method of treating or preventing central nervous system disorders with compounds having selectivity for the alpha 3 subunit of the benzodiazepine receptor” (priority 2003, published 2005)
